In patent US20260070906A1, “IMIDAZO[4,5-C]PYRIDINE COMPOUNDS FOR THE TREATMENT OF CANCER” (Hoffmann-La Roche Inc., priority 2023, published 2026):

Key:
human TLR7 = biological target: T1, human TLR7 (Homo sapiens, UniProt Q9NYK1); assay: HEK293-Blue-hTLR7 cells assay (NF-κB SEAP reporter); format: cell-based; settings: 20 hrs incubation, agonism
T1 construct: host or cells: HEK293-Blue-hTLR7 (HEK293)
T1 sequence (Q9NYK1 27-1049): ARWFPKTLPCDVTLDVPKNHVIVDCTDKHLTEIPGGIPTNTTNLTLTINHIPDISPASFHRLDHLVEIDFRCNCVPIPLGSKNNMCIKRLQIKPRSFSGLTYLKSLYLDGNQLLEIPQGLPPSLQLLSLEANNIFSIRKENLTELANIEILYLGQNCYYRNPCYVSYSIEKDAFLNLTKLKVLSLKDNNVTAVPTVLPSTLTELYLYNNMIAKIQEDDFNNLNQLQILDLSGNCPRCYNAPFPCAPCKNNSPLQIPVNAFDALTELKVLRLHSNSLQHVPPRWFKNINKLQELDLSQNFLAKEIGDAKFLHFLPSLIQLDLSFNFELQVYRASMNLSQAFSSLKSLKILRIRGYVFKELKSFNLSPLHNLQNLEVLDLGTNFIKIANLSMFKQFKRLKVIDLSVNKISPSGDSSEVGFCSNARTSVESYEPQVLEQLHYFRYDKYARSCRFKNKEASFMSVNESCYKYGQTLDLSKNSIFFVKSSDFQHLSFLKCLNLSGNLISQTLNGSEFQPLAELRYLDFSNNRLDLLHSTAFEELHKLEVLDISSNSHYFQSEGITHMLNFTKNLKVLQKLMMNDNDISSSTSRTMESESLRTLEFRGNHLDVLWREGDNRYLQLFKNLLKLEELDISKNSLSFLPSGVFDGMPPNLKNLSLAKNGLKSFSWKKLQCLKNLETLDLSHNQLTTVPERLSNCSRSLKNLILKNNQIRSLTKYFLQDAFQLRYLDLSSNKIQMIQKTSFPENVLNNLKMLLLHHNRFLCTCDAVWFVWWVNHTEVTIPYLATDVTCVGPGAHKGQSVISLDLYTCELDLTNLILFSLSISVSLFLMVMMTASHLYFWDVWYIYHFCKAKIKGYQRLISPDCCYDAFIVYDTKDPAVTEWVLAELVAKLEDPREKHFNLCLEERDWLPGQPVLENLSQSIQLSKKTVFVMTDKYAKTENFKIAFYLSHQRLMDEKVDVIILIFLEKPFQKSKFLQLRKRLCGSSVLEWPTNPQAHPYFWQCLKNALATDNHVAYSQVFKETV
Description: A stable HEK293-Blue-hTLR7 cell line was purchased from InvivoGen (Cat. #: hkb-htlr7, San Diego, California, USA). These cells were designed for studying the stimulation of human TLR7 by monitoring the activation of NF-κB. A SEAP (secreted embryonic alkaline phosphatase) reporter gene was placed under the control of the IFN-β minimal promoter fused to five NF-κB and AP-1-binding sites. The SEAP was induced by activating NF-κB and AP-1 via stimulating HEK-Blue hTLR7 cells with TLR7 ligands. Therefore the reporter expression was regulated by the NF-κB promoter upon stimulation of human TLR7 for 20 hrs. The cell culture supernatant SEAP reporter activity was determined using QUANTI-Blue™ kit (Cat. #: rep-qbl, Invivogen, San Diego, Ca, USA) at a wavelength of 650 nm, a detection medium that turns purple or blue in the presence of alkaline phosphatase.
HEK293-Blue-hTLR7 cells were incubated at a density of 250,000˜450,000 cells/mL in a volume of 180 μL in a 96-well plate in Dulbecco's Modified Eagle's medium (DMEM) containing 4.5 g/L glucose, 100 U/mL penicillin, 100 μg/mL streptomycin, 100 μg/mL Normocin, 1% (V/V) GlutaMAX™, 10% (V/V) heat-inactivated fetal bovine serum for 24 hrs. Then the HEK293-Blue-hTLR-7 cells were incubated with addition of 20 μL test compound in a serial dilution in the presence of final DMSO at 1% and perform incubation under 37° C. in a CO2 incubator for 20 hrs. Then 20 μL of the supernatant from each well was incubated with 180 μL Quanti-blue substrate solution at 37° C. for 1 hours and the absorbance was read at 620-655 nm using a spectrophotometer. The signalling pathway that TLR7 activation leads to downstream NF-κB activation has been widely accepted, and therefore similar reporter assay was also widely used for evaluating TLR7 agonist (Tsuneyasu Kaisho and Takashi Tanaka, Trends in Immunology, Volume 29, Issue 7, July 2008, […]; Hiroaki Hemmi et al, Nature Immunology 3, 196-200 (2002)).

human TLR8 = biological target: T2, human TLR8 (Homo sapiens, UniProt Q9NR97); assay: HEK293-Blue-hTLR8 cells assay (NF-κB SEAP reporter); format: cell-based; settings: 20 hours incubation, agonism
T2 construct: host or cells: HEK293-Blue-hTLR8 (HEK293)
T2 sequence (Q9NR97 27-1041): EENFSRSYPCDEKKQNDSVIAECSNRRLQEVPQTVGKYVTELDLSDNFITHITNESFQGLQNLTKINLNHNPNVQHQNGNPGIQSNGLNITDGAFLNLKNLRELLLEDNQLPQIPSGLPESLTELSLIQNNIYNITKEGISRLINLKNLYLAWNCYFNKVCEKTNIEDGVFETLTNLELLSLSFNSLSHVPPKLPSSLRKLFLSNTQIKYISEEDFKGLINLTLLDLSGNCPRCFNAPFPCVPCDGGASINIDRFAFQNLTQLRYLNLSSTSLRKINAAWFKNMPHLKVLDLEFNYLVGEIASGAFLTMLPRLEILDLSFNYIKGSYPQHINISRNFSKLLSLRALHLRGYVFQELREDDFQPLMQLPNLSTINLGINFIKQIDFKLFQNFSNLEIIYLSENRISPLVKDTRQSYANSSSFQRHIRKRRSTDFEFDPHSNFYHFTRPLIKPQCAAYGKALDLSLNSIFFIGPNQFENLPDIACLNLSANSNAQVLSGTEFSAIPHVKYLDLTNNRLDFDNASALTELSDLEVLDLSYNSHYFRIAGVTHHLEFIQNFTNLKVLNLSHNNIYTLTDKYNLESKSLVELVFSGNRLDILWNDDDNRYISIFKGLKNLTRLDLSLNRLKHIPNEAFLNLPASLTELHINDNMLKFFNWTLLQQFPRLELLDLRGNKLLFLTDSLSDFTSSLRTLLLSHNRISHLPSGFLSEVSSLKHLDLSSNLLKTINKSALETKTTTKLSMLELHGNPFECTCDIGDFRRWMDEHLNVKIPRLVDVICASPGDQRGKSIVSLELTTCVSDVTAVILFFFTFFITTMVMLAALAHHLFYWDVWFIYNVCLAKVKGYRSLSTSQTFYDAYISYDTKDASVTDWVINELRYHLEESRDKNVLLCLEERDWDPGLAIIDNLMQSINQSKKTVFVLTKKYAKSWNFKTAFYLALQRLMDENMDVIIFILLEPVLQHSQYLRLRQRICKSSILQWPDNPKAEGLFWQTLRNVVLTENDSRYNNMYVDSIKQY
Description: A stable HEK293-Blue-hTLR8 cell line was purchased from InvivoGen (Cat. #: hkb-htlr8, San Diego, California, USA). These cells were designed for studying the stimulation of human TLR8 by monitoring the activation of NF-κB. A SEAP (secreted embryonic alkaline phosphatase) reporter gene was placed under the control of the IFN-β minimal promoter fused to five NF-κB and AP-1-binding sites. The SEAP was induced by activating NF-κB and AP-1 via stimulating HEK-Blue hTLR8 cells with TLR8 ligands. Therefore the reporter expression was regulated by the NF-κB promoter upon stimulation of human TLR8. The cell culture supernatant SEAP reporter activity was determined using QUANTI-Blue™ kit (Cat. #: rep-qbl, Invivogen, San Diego, Ca, USA) at a wavelength of 650 nm, a detection medium that turns purple to blue in the presence of alkaline phosphatase.
HEK293-Blue-hTLR8 cells were incubated at a density of 250,000-450,000 cells/mL in a volume of 180 μL in a 96-well plate in Dulbecco's Modified Eagle's medium (DMEM) containing 4.5 g/L glucose, 100 U/mL penicillin, 100 μg/mL streptomycin, 100 μg/mL Normocin, 1% (V/V) GlutaMAX™, 10% (v/v) heat-inactivated fetal bovine serum for 24 hours. Then the HEK293-Blue-hTLR8 cells were incubated with addition of 20 μL test compound in a serial dilution in the presence of final DMSO at 1% and perform incubation under 37° C. in a CO2 incubator for 20 hours. Then 20 μL of the supernatant from each well was incubated with 180 μL Quanti-blue substrate solution at 37° C. for 1 hours and the absorbance was read at 620-655 nm using a spectrophotometer. The signalling pathway that TLR8 activation leads to downstream NF-κB activation has been widely accepted, and therefore similar reporter assay was also widely used for evaluating TLR8 agonist.

EC50 (human TLR7) | EC50 (human TLR8) | SMILES | HEK293-hTLR7 EC50 (human TLR7) | HEK293-hTLR8 EC50 (human TLR8)
13 nM | 11 nM | CCOCc1nc2c(N)nc(C)c(Sc3ccc(NCCN(C)C)nc3)c2[nH]1 [Example 30, N-[5-[[4-amino-2-(ethoxymethyl)-6-methyl-1H-imidazo[4,5-c]pyridin-7-yl]sulfanyl]-2-pyridyl]-N′,N′-dimethyl-ethane-1,2-diamine] |  | 
18 nM | 5 nM | CCOCc1nc2c(N)nc(C)c(Sc3ccc(CCN(C)C)cc3)c2[nH]1 [Example 31, 7-[4-[2-(dimethylamino)ethyl]phenyl]sulfanyl-2-(ethoxymethyl)-6-methyl-1H-imidazo[4,5-c]pyridin-4-amine] |  | 
21 nM | 54 nM | CCOCc1nc2c(N)nc(C)c(Sc3cc4c(cc3O)CN(C)CC4)c2[nH]1 [Example 32, 6-[[4-amino-2-(ethoxymethyl)-6-methyl-1H-imidazo[4,5-c]pyridin-7-yl]sulfanyl]-2-methyl-3,4-dihydro-1H-isoquinolin-7-ol] |  | 

Continued, compound first:

SMILES | EC50 (human TLR7) | EC50 (human TLR8) | HEK293-hTLR7 EC50 (human TLR7) | HEK293-hTLR8 EC50 (human TLR8)
CCOCc1nc2c(N)nc(C)c(Sc3ccc(CN4CCN(C)CC4)c(N)c3)c2[nH]1 [Example 28, 7-[3-amino-4-[(4-methylpiperazin-1-yl)methyl]phenyl]sulfanyl-2-(ethoxymethyl)-6-methyl-1H-imidazo[4,5-c]pyridin-4-amine] | 10 nM | 44 nM |  | 
CCOCc1nc2c(N)nc(C)c(Sc3c(N)cc(CN4CCN(C)CC4)cc3OC)c2[nH]1 [Example 29, 7-[2-amino-6-methoxy-4-[(4-methylpiperazin-1-yl)methyl]phenyl]sulfanyl-2-(ethoxymethyl)-6-methyl-1H-imidazo[4,5-c]pyridin-4-amine] | 6 nM | 44 nM |  | 
CCCCc1nc2c(N)nnc(N(C)Cc3ccc(CN(C)C)cc3)c2n1C [SAN-43, reference compound] | 310 nM | 37 nM | did not show comparable TLR7 and TLR8 activities | did not show comparable TLR7 and TLR8 activities
